Source: patent US20250339443A1, “METHOD FOR TREATING OR PREVENTING CALCIUM RELEASE-ACTIVATED CALCIUM CHANNEL OR DISCOIDIN DOMAIN RECEPTOR 2 RELATED DISORDERS OR CONDITIONS” (LumiSTAR Biotechnology, Inc., priority 2023, published 2025)

Assays:
[1] = system: obstruction-induced persistent progression of renal fibrosis; test: Reversible unilateral ureteral obstruction (RUUO) model; format: in vivo, mouse
Text: FIG. 6A illustrates a diagram depicting the timeline of operations and drug delivery. The left ureter was surgically ligated (UUO-L) for 7 days, after which it was re-connected to the bladder (RUUO-L). Various compounds, including DMSO (control), WRG-28, and Av, were intraperitoneally injected daily during ureter ligation (UUO-L) period. After following RUUO-L for an additional 13 days, the right ureter was ligated (UUO-R). Subsequently, mice were housed in metabolic cages on the day after surgery (day 21). On day 22, the left kidneys were removed for further analysis to evaluate kidney function. […] FIG. 6C illustrates the measurement of the Sirius red-positive area in each group, conducted by using Image J from 5-10 images. The protein levels of integrin β1, collagen 1a1, DDR2, α-SMA, E-cadherin, SGLT2, NHE1, and β-actin were assessed in mice treated with WRG-28 (FIG. 6D) and Av (FIG. 6F) using Western blot analysis. Relative protein levels were quantified using Image J (FIG. 6E and FIG. 6G). Each bar represents mean±SEM. In all the graphs, *, **, and *** denote p-values of <0.05, 0.01, and 0.001, respectively.
The left ureter was surgically ligated (UUO-L) for 7 days, after which it was re-connected to the bladder (RUUO-L). Various compounds, including DMSO (control), WRG-28, and Av were intraperitoneally injected for 13 days after the release of left ureter ligation (during RUUO-L period). After 13 days of RUUO-L, the right ureter was ligated (UUO-R). Subsequently, the mice were housed in metabolic cages on the following day of surgery (day 21). On day 22, the left kidneys were removed for further analysis. […] FIG. 7C illustrates the measurement of the Sirius red-positive area in each group using Image J from 5-10 images. The protein levels of integrin β1, collagen 1a1, DDR2, […] were assessed in mice treated with WRG-28 (FIG. 7D) and Av (FIG. 7F) using Western blot analysis. The relative protein levels were measured and quantified using Image J (FIG. 7E and FIG. 7G). Each bar represents the mean±SEM. In all the graphs, *, **, and *** denote p-values of <0.05, 0.01, and 0.001, respectively. NS denotes a p-value >0.05, indicating no significant difference between the two groups.
FIG. 8A, FIG. 8B, FIG. 8C, FIG. 8D, FIG. 8E, FIG. 8F, FIG. 8G, and FIG. 8H illustrate how WRG-28 and Av restore epithelial differentiation and reduce collagen deposition and myofibroblast expansion in RUUO-induced persistent progression of renal fibrosis. The frozen tissue blocks were utilized for immunofluorescence staining. […] Laminin alpha 1 and collagen 1a1 were detected using primary antibodies, followed by secondary antibodies conjugated with Alexa-488 (green) and Alexa-594 (red), respectively. Hoechst 33258 (blue) was used for labeling nuclei. FIG. 8A-(ii) illustrates the fluorescent intensity of collagen 1a1 measured using Image J. Analysis was conducted on 5-10 areas from each of the 5 pictures, with each bar representing the mean±SEM. In FIG. 8A-(i), the thickness of laminin alpha 1 was measured using Image J by analyzing 5-10 areas from each of the 5-10 pictures. The median is marked by a solid line, while the quartiles are indicated by dotted lines. […] FIG. 8B-(iii) illustrates the fluorescent intensity of α-SMA, measured using Image J. Quantification was conducted on at least 5 areas from each of the 5 pictures, with each bar representing the mean±SEM. […] Additionally, Hoechst 33258 (blue) was used for labeling nuclei. FIG. 8C-(iv) illustrates the quantification of apical membrane expression of SGLT2 in SGLT2 positive cells for each condition. Analysis was conducted on at least 5 pictures from each condition, with each bar representing the mean±SEM. […] Hoechst 33258 (blue) was used to label nuclei. The expressions of DDR2 (FIG. 8D-(v)) and AQP1 (FIG. 8D-(vi)) were analyzed and quantified based on 5-8 pictures from each condition. Each bar in the figures represents the mean±SEM. […]

[2] = system: obstruction-induced persistent progression of renal fibrosis; test: Kidney transcriptome (RNA sequencing, ingenuity pathway analysis) in RUUO mice; format: in vivo, mouse; conditions: treated after the obstruction was released (7/15*d)
Text: FIG. 10A and FIG. 10B display how WRG-28 and Av treatments effectively reduce RUUO-induced overwhelming fibrosis and inflammation. In FIG. 10A, total ribonucleic acid (RNA) extracts from control mice (sham) and mice treated with DMSO, WRG-28, or Av after the obstruction was released (7/15*d) underwent ingenuity pathway analysis (IPA). Both FIG. 10A and FIG. 10B illustrate large-scale transcriptome analysis, further affirming the potent effects of WRG-28 and Av in preventing and protecting kidneys from progressive fibrosis.
Total RNA was extracted from kidneys by homogenizing the samples in TRIzol reagent (Invitrogen). Chloroform was added and the homogenate separates into three layers, the upper clear aqueous containing RNA was transferred into a new tube, and RNA was precipitated by adding isopropanol. The pellets were washed with 70% ethanol and then dissolved in RNase-free water. The RNA passes the quality control, including RNA integrity number (RIN) >7, OD260/OD280 ˜1.8, etc., were sent for sequencing. Transcriptomes were analyzed by ingenuity pathway analysis (IPA).
Total ribonucleic acid (RNA) was extracted from […]: control mice (sham) and mice that received treatments with DMSO, WRG-28, or Av after the obstruction was released (7/15*d). Transcriptomes were then analyzed by ingenuity pathway analysis (IPA). […]

[3] = serum, compared to DMSO-treated mice, 7*/15d or 7/15*d
[4] = treated after release of obstruction (7/15*d), Western blot
[5] = treated after the obstruction was released (7/15*d)
[6] = treated during obstruction (7*/15d)
[7] = treated during obstruction (7*/15d), Western blot

CCNS(=O)(=O)c1ccc(COc2ccc3nc4ccc(=O)cc-4oc3c2)cc1 [WRG-28]
expression of DDR2 (immunofluorescence) ([1]; RUUO, compared to the DMSO-treated group): reduced | apical membrane expression of SGLT-2 ([1]; RUUO, immunofluorescence): reversed | atrophic tubules ([1]; RUUO, immunofluorescence): fewer | accumulation of collagen 1a1 (immunofluorescence) ([1]; RUUO, vs DMSO treated group): mitigated | expression of α-SMA (immunofluorescence) ([1]; RUUO, vs DMSO treated group): markedly reduced | level of BUN [1, 3]: significantly reduced | level of CRE [1, 3]: significantly reduced | kidney histology (H&E) ([1]; treated 7 days during ureter obstruction (7*/15d)): preserved the intact tubular structure | kidney histology (H&E) compared to DMSO-treated mice ([1]; treated 13 days after release of obstruction (7/15*d)): numerous intact tubular structures, less inflammation and scar tissue | collagen-positive area (Sirius red) ([1]; treated after release of obstruction (7/15*d)): reduced | downregulation of epithelial marker proteins, E-cadherin, SGLT2 and NHE1 [1, 4]: only partially reversed | obstruction-induced upregulation of integrin β1, DDR2, collagen 1a1, and α-SMA [1, 4]: alleviated | number of apoptotic cells (TUNEL-positive cells) [1, 5]: significantly reduced | numbers of proliferating tubular cells (Ki67-positive cells) [1, 5]: increased | expansion of the fibrotic area (collagen-positive area, Sirius red) [1, 6]: significantly reduced | numbers of proliferating tubular cells (Ki67-positive) [1, 6]: did not significantly differ | proliferating interstitial cells (Ki67) [1, 6]: more proliferating interstitial cells in DMSO treated mice | expression of epithelial markers (E-cadherin, SGLT2, NHE1) [1, 7]: significant increase | expression of mesenchymal marker proteins (integrin β1, DDR2, collagen 1a1, α-SMA) [1, 7]: significantly reduced | apoptotic (TUNEL-positive) tubular cells ([1]; treated during obstruction, obstruction released for 15 days (7*/15d)): only a few | width of the basement membrane (laminin alpha 1 thickness) ([1]; treated during the obstruction (7*/15d) or after its release (7/15*d), immunofluorescence): uniform and unchanging width | inflammatory responses and fibrotic signaling pathways (transcriptome, IPA) [2]: reduced
